Series [1] relates to human plasma, extrinsic clotting cascade. The experiment in a line: Prothrombin time (PT). In kind it is biochemical. Conditions: GC38 0.1-10 μM; human plasma 20 μL, pre-incubation 5 min at 37 °C, PT reagent; scattered light; n = 3. On the procedure:
APTT and PT were measured with commercially available kits according to the manufacturer’s instructions. For APTT determination, 20 μL human plasma was pre-incubated with GC38 (0.1, 1, and 10 µM) at 37 °C for 5 min, and then 30 μL APTT reagent was added and incubated for another 5 min. Subsequently, 40 μL pre-warmed CaCl2 (37 °C) was added to initiate the intrinsic clotting cascade. The intensity of the scattered light was monitored until the signals reached saturation. For PT determination, 20 μL human plasma was pre-incubated with GC38 (0.1, 1, and 10 µM) at 37 °C for 5 min. Then, 75 μL PT reagent was added to initiate the extrinsic clotting cascade. The intensity of the scattered light was monitored until the signals reached saturation. The coagulation time (APTT or PT) was defined as the time point at which the scattered light signal reached the midpoint between the baseline and maximum amplitude. All concentrations were tested in triplicate. Results are shown as mean values, and the time at maximum reactive velocity was also reported.

Series [2] concerns human embryonic kidney cells (HEK293T). The experiment in a line: Cytotoxicity (CCK-8), HEK293T. In kind it is cell-based. Conditions: 24 h, n = 3. On the procedure: (§1) The cytotoxicity of GC38 was evaluated in human embryonic kidney cells (HEK293T), human keratinocytes (HaCaT), and murine macrophage (RAW264.7) cell lines. The cells were from Kunming Cell Bank, Chinese Academy of Sciences. HEK293T and HaCaT cells were cultured in DMEM supplemented with 10% fetal bovine serum (FBS) and 1% penicillin-streptomycin, and RAW264.7 cells were maintained in RPMI 1640 containing 10% FBS and 1% penicillin–streptomycin, with all cell lines incubated at 37 °C under 5% CO2. For cytotoxicity assessment, cells were seeded at a density of 1 × 10^5 cells per well in 96-well plates and incubated for 12 h. […] After 24 h incubation, cell viability was determined using the CCK-8 assay (10 μL/well). Absorbance was measured at 450 nm using a multi-mode microplate reader (BioTek Synergy™ H1, Winooski, VT, USA). Untreated cells and cells treated with 10% DMSO served as negative and positive controls, respectively. Viability percentages were calculated relative to the untreated control. All experiments were conducted in triplicate, and data were expressed as mean ± SEM.

The test system of series [3] is murine macrophage (RAW264.7). The experiment in a line: Cytotoxicity (CCK-8), RAW264.7. The format is cell-based. More on the design: cytotoxicity RAW264.7: dose or concentration left out as unconfirmed. The following applies: 24 h, n = 3. Here is the method: as §1
In series [4] the test system is stasis-induced deep vein thrombosis in mice. The experiment in a line: Stasis-induced deep vein thrombosis (DVT) model. In kind it is in vivo, C57BL/6J mice. On the procedure:
(§2) The C57BL/6J mice (male, 6–8 weeks old) were purchased from Beijing Vital River Laboratory Animal Technology Co., Ltd. (Beijing, China). All animal studies were performed under the approval of the Ethics Committee of the Laboratory Animal Welfare of the Kunming Institute of Zoology, Chinese Academy of Sciences (IACUC-RE-2025-03-010).
Male C57BL/6J mice (6–8 weeks old, n = 10 per group) were randomized to receive intravenous injections of PBS (vehicle control), GC38 (2 or 4 mg/kg), or heparin sodium (1000 U/kg) for the establishment of stasis-induced DVT models. […] Briefly, mice were anesthetized, and the IVC was exposed through a midline abdominal incision. […] Finally, the abdominal wall was closed carefully. At 24 h post-ligation, the IVC was resected, and thrombus formation was quantified by measuring the weight of the thrombi (n = 5). HE staining analysis of thrombus sections was performed to evaluate the extent of thrombosis (n = 5).

In series [5] the test system is cortical photothrombotic stroke in mice. The experiment in a line: Rose Bengal-mediated cortical photothrombotic stroke (CPS) model. In kind it is in vivo, mouse. Conditions: n = 6; for blood flow reduction (cerebral): laser speckle perfusion, vehicle 40.1%. On the procedure:
as §2
The Rose Bengal-mediated CPS model was employed to induce focal cerebral ischemia in mice. Rose Bengal (50 mg/kg), a photosensitive dye, was administered intravenously 1 h before the surgery, followed by an intravenous injection of PBS (vehicle control), GC38 (2 or 4 mg/kg), and heparin sodium (1000 U/kg) 10 min before the surgery. Briefly, mice were anesthetized and secured in a stereotaxic frame. A midline scalp incision was made to expose the skull, followed by illumination with a 562 nm yellow-green laser (R-LG561-100-A5, RWD Life Science, Shenzhen, China) for 7 min. This process generated reactive oxygen species, resulting in endothelial damage and subsequent thrombus formation. Post-illumination, the scalp was sutured, and mice were placed on a warming pad for recovery. Cerebral ischemia severity was evaluated using the LSP imaging system, and the 15-day survival rates after ischemia induction were recorded.

A further series concerns mouse tail bleeding. The experiment in a line: Tail bleeding time. The format is in vivo, C57BL/6J mice. Conditions: n = 6; for tail bleeding time: 10 min after administration, vehicle 89.8 s. On the procedure: as §2
The mouse tail-bleeding assay was performed to evaluate the bleeding risk associated with GC38 treatment. Male C57BL/6J mice (6–8 weeks, n = 6 per group) were randomized to receive intravenous injection of PBS (negative control), GC38 (2 or 4 mg/kg in PBS), or heparin sodium (1000 U/kg, positive control). The assay was conducted 10 min after administration. Mice were anesthetized, and a 2 mm segment of the tail tip was surgically transected using a sterile scalpel. Immediately after the incision, the tail was immersed in prewarmed PBS (37 °C) to facilitate blood flow. Bleeding time was recorded from the moment of the incision until the complete cessation of bleeding (no blood flow for 60 s).

Setting [6] is: 50 μM, serum-free medium, CCK-8, 450 nm, relative to untreated control.

Peptide text beside a SMILES is read from it.

On to `CSCC[C@@H]1NC(=O)[C@H](CC(N)=O)NC(=O)CNC(=O)CNC(=O)[C@H](Cc2c[nH]cn2)NC(=O)[C@H](CCCNC(=N)N)NC(=O)CNC(=O)[C@@H]2CSSC[C@@H]3NC(=O)[C@H](CCCNC(=N)N)NC(=O)[C@H](C)NC(=O)CNC(=O)[C@H](CCCCN)NC(=O)CNC(=O)[C@H](CO)NC(=O)[C@@H](NC(=O)CN)CSSC[C@H](NC(=O)[C@H](CSSC[C@@H](C(=O)N[C@@H](CCC(=O)O)C(=O)N[C@@H](Cc4c[nH]c5ccccc45)C(=O)N[C@@H](CC(N)=O)C(=O)N[C@@H](Cc4c[nH]c5ccccc45)C(=O)N[C@@H](CCCCN)C(=O)N[C@H](C(=O)NCC(=O)O)[C@@H](C)O)NC(=O)[C@H](CO)NC(=O)[C@H](CCCCN)NC(=O)[C@H](Cc4ccc(O)cc4)NC1=O)NC(=O)[C@H](CCCCN)NC(=O)[C@H](CO)NC(=O)[C@@H]1CCCN1C(=O)[C@H](C)NC3=O)C(=O)N[C@@H](CO)C(=O)NCC(=O)N[C@@H](CC(C)C)C(=O)N[C@@H](CO)C(=O)N2` [GC38] (HELM PEPTIDE1{G.C.S.G.K.G.A.R.C.A.P.S.K.C.C.S.G.L.S.C.G.R.H.G.G.N.M.Y.K.S.C.E.W.N.W.K.T.G}$PEPTIDE1,PEPTIDE1,2:R3-15:R3|PEPTIDE1,PEPTIDE1,9:R3-20:R3|PEPTIDE1,PEPTIDE1,14:R3-31:R3$$$V2.0), for which the “prothrombin time (PT) effect” value in series [1] is listed as “no apparent effects on prothrombin time (PT)”. Moreover, the “cell viability HEK293T” value in series [2] (setting [6]) is listed as “greater than 95%”. For the same molecule, the “cytotoxicity HEK293T” value in series [2] (0.1–50 μM, CCK-8) was “negligible cytotoxicity”. For the same molecule, the “cell viability RAW264.7” value in series [3] (setting [6]) is given as “greater than 95%”. The “cytotoxicity RAW264.7” value in series [3] (CCK-8) is reported as “negligible cytotoxicity”. Besides, the “reduction of thrombus wet weight versus vehicle control” value in series [4] (GC38 4 mg/kg i.v., 24 h after IVC ligation, n = 5 per group) is on record as 64.0%. For the same molecule, the “thrombus area (histology)” value in series [4] (HE staining, IVC sections, 24 h after ligation, n = 5) is reported as “decrease in thrombus area”. Also, the “blood flow reduction (cerebral)” value in series [5] (GC38 2 mg/kg i.v. 10 min before surgery) is 22.0%; in series [5] (GC38 4 mg/kg i.v. 10 min before surgery) it was 6.4%. Besides, the “microvascular occlusion and ischemic lesions” value in series [5] (GC38 4 mg/kg i.v.) was “delayed microvascular occlusion and alleviated the formation of ischemic lesions”. Further, the 15-day survival rate entry in series [5] (versus untreated group) is listed as “improved the 15-day survival rate of mice”. Further, the tail bleeding time came to 97.6 s with mouse tail bleeding (GC38 2 mg/kg i.v.) and 100.6 s in the series with mouse tail bleeding (GC38 4 mg/kg i.v.). The “tail bleeding time versus vehicle control” value in the series with mouse tail bleeding (GC38 2 and 4 mg/kg i.v.) is on record as “comparable to the vehicle control group”.

For the origin of these results see PMC12564639, “Discovery of a Novel Anticoagulant Cystine Knot Peptide from Spider Venom Gland Transcriptome” (International Journal of Molecular Sciences, 2025).
